Experimental data taken from US20050137220A1 (Pharmacia Corporation, priority 2003, published 2005).
Counter-ions that a name gives are not always drawn. Like-named read-outs stand apart in the source and are kept apart here.

Tests used:
MK-2 = MK-2 (Homo sapiens, UniProt P49137); test: Determination of MK-2 IC50 (phosphorylation of HSP-peptide, anion exchange resin capture assay); type: biochemical; conditions: additional values are replicate IC50 experiments; mixture of stereoisomers implied unless otherwise noted; read-out: MK-2 Avg. IC50
U937 cells = test: U937 Cell TNFα Release Assay; type: cell-based, human; conditions: Homo sapiens, TNFα by ELISA, mixture of stereoisomers implied unless otherwise noted, read-out: TNF Release Assay Avg. IC50
p38 [1] = conditions: rat adjuvant arthritis; cited from earlier work
p38 [2] = conditions: mouse collagen-induced arthritis; cited from earlier work
p38 [3] = conditions: murine model of endotoxin-induced shock; cited from earlier work
[4] = U-937, LPS-stimulated differentiated U937 cells
[5] = U-937, 4 h, LPS-stimulated differentiated U937 cells

MK-2, sequence (P49137 whole entry, species assumed): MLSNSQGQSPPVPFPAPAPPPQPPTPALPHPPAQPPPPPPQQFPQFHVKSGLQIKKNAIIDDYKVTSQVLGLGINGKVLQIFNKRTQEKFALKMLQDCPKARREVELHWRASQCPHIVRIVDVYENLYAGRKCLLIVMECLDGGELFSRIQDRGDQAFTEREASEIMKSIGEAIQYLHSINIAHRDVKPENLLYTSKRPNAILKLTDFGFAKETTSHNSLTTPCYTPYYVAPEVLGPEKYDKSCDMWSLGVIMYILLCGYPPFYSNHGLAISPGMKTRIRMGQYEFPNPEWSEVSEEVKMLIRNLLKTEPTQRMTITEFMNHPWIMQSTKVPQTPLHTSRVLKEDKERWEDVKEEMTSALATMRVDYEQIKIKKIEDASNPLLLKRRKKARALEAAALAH

SMILES | IC50 (MK-2) | IC50 (U937 cells; [4]) | IC50 (U937 cells; [5]) | development of arthritis (p38 [1]) | development of arthritis (p38 [2]) | mortality (p38 [3])
COc1ccc2[nH]c3c(c2c1)CC(CCCNCCCc1ccccc1)NC3=O (stereo not drawn) [Example 27, 6-methoxy-3-{3-[(3-phenylpropyl)amino]propyl}-2,3,4,9-tetrahydro-1H-beta-carbolin-1-one trifluoroacetate] | 3.24 µM | 8.54 µM |  |  |  | 
COC(=O)COc1ccc2[nH]c3c(c2c1)CCNC3C(=O)O (stereo not drawn) [Example 70, 6-(2-methoxy-2-oxoethoxy)-2,3,4,9-tetrahydro-1H-beta-carboline-1-carboxylic acid trifluoroacetate hydrate] | 15.3 µM |  | > 100 µM |  |  | 
COc1ccc2[nH]c3c(=O)n(N)c(=O)[nH]c3c2c1 [Example 266, 3-amino-8-methoxy-1H-pyrimido[5,4-b]indole-2,4(3H,5H)-dione] | > 200 µM | > 100 µM |  |  |  | 
O=C(O)C1NCCc2c1[nH]c1ccc(OCc3ccncc3)cc21 (stereo not drawn) [Example 85, 6-(pyridin-4-ylmethoxy)-2,3,4,9-tetrahydro-1H-beta-carboline-1-carboxylic acid hydrochloride] | 25.8 µM |  | 48.4 µM |  |  | 
O=C(O)C1NCCc2c1[nH]c1ccc(OCCCCl)cc21 (stereo not drawn) [Example 76, 6-(3-chloropropoxy)-2,3,4,9-tetrahydro-1H-beta-carboline-1-carboxylic acid hydrochloride] | 16.7 µM |  | > 100 µM |  |  | 
C[S+]([O-])c1ccc(-c2nc(-c3ccncc3)c(-c3ccc(F)cc3)[nH]2)cc1 (stereo not shown) [SB203580] |  |  |  | inhibit the development | inhibit the development | reduce mortality
COc1ccc2[nH]c3c(c2c1)CCC/C3=N/O [Example 25, (1Z)-6-methoxy-2,3,4,9-tetrahydro-1H-carbazol-1-one oxime] | 3.1 µM | 2.18 µM |  |  |  | 
CCCC1CNC(C(=O)OC)c2[nH]c3ccc(OC)cc3c21 (stereo not drawn) [Example 188, methyl 6-methoxy-4-propyl-2,3,4,9-tetrahydro-1H-beta-carboline-1-carboxylate] | > 200 µM |  | 13.3 µM |  |  | 
CCCCOc1ccc2[nH]c3c(c2c1)CCNC3C(=O)O (stereo not drawn) [Example 60, 6-butoxy-2,3,4,9-tetrahydro-1H-beta-carboline-1-carboxylic acid] | 10.1 µM |  | > 100 µM |  |  | 
